# Assay results taken from patent US10641776B2, “Methods for measuring binding and cellular engagement of ligands with target proteins” (EUROFINS DISCOVERX CORPORATION, priority 2015, dated 2020).
# Legend:
# H3K9me2 = conditions: Vedadi et al., Nature Chemical Biology 2011; read-out: Published cell potency for reducing H3K9me2: IC50; cited from earlier work
# G9a catalytic domain = target: T1, G9a catalytic domain (Homo sapiens, UniProt Q96KQ7); test: In-cell pulse thermal denaturation EFC assay, G9a methyltransferase in HEK293 cells; type: cell-based; conditions: 3 hour incubation at 37° C.; single 3 minute denaturation step at 48° C.
# T1 sequence (Q96KQ7 1-1210): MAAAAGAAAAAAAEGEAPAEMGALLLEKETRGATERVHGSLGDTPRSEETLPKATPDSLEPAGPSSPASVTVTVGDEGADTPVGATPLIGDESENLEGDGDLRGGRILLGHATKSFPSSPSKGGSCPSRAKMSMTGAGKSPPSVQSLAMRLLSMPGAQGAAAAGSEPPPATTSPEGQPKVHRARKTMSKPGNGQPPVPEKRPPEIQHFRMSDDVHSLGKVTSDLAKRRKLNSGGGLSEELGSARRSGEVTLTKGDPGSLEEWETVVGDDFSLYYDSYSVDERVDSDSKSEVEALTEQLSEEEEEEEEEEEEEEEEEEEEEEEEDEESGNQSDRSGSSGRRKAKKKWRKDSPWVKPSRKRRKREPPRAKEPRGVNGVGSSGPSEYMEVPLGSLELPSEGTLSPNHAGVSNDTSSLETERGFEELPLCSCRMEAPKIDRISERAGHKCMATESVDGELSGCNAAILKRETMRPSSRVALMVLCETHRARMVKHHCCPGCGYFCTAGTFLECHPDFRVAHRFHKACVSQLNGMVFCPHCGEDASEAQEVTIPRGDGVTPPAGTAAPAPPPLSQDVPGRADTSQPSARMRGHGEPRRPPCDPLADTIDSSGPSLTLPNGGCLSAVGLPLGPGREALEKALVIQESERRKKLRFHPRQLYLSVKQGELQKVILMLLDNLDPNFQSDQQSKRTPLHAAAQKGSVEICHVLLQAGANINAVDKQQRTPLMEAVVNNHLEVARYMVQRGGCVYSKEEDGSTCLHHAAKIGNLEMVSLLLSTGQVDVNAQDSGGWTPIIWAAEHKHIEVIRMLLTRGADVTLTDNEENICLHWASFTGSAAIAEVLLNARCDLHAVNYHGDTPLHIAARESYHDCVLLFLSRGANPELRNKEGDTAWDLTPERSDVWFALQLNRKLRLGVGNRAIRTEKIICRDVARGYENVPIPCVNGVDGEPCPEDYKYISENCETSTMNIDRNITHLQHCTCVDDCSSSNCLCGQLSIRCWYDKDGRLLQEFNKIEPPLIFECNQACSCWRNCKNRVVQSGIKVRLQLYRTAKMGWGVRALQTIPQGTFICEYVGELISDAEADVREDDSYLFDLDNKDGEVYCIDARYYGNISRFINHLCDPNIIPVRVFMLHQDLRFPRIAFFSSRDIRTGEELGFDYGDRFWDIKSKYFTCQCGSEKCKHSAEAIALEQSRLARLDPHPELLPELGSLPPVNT
# Experimental: The G9a catalytic domain is expressed with a C-terminal PL tag. A 3 hour incubation with inhibitor at 37° C. is followed by a single 3 minute denaturation step at 48° C.
# [1] = target: T2, G9a protein methyltransferase (Homo sapiens, UniProt Q96KQ7); test: Cell-free single-step denaturation EFC binding assay, ED-tagged G9a; conditions: single denaturation step of 3 minutes at 50° C.; signal increase from about 10^2 nM through 10^4 nM
# T2 sequence (Q96KQ7 1-1210): T1 sequence (Q96KQ7 1-1210)
# Experimental: (§1) Data were fitted with the Hill Equation and EC50s were calculated.
# This proof of concept G9a study was performed using a single denaturation step of 3 minutes at 50° C.
# MTH1 [2] = target: T3, MTH1 (Homo sapiens, UniProt P36639); conditions: read-out: Published MTH1 potency: In vitro EC50; cited from earlier work
# [3] = target: MTH1 hydrolase catalytic domain (Homo sapiens, UniProt P36639); test: In-cell pulse thermal denaturation EFC assay, MTH1 hydrolase in HEK293 cells; type: cell-based; conditions: 3 hours with inhibitor at 37° C.; for EC50: preliminary protocol
# MTH1 [4] = target: T3, MTH1; conditions: read-out: Published MTH1 potency: Cellular IC50; cited from earlier work
# ABL1 protein kinase = target: T4, ABL1 protein kinase (Homo sapiens, UniProt P00519); type: binding; conditions: seven inhibitors; 30 cycles of 7 seconds at 42° C. / 60 seconds at 25° C.
# T4 construct: made in house; host or cells: cell extract
# T4 sequence (P00519 whole entry): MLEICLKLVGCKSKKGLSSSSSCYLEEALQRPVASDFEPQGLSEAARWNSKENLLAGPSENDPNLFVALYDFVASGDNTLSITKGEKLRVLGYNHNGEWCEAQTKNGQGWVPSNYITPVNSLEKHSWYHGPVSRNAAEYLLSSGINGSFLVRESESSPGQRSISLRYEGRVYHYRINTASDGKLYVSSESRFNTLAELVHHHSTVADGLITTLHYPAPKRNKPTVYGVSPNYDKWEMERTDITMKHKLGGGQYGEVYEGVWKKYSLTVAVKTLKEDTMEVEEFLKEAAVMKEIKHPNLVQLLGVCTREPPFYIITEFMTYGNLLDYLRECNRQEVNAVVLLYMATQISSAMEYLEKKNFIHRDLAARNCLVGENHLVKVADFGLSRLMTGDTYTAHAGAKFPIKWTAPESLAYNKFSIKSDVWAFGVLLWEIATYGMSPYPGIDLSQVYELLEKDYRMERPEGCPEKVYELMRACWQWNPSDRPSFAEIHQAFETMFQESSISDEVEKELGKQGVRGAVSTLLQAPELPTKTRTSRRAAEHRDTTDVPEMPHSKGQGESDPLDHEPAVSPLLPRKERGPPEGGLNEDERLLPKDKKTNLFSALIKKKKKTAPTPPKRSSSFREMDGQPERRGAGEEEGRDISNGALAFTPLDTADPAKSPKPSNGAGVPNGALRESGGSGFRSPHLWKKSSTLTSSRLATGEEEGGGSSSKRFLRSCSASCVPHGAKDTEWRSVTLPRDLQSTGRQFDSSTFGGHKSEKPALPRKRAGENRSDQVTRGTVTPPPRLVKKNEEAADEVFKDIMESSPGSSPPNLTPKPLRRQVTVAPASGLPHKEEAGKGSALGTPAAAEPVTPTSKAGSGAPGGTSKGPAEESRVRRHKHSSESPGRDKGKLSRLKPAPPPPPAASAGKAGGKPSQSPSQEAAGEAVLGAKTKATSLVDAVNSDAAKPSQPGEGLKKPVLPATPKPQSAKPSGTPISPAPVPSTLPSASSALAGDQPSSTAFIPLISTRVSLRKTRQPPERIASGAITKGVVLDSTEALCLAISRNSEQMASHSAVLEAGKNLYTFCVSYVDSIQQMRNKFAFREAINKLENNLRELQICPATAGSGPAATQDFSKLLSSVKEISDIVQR
# Experimental: as §1
# EC50 dose response curves for the seven inhibitors shown on the graph (inhibitor name labels and corresponding curves are in the same left to right order) were measured against ED-tagged ABL1.
# BRD4(1) = BRD4(1) (Homo sapiens, UniProt O60885); conditions: 0-100 micromolar; 1 hour at room temperature; 45° C. for 30s
# Experimental: To carry out the assay, a fusion protein [BRD4(1)-ED], which also contains an NFκB DNA binding domain at the N-terminus, was constructed with BRD4(1) and a ProLabel™ enzyme donor (ED) fragment. […] The incubation was for 1 hour at room temperature. The samples were then heated to 45° C. for 30s. EA was subsequently added into the samples (along with luminescent substrate for beta-galactosidase) and complementation was measured by measuring luminescence.
# To carry out the assays, two separate samples were prepared wherein one sample comprises BRD4(1)(fusion) and no inhibitor whereas another sample comprises BRD4(1)(fusion) and an inhibitor. […] Following incubation, samples were exposed to increased temperatures (25° C., 45° C., 50° C. and 55° C. respectively). The samples were then centrifuged to separate the precipitate.
# To carry out the experiment, a fusion protein was constructed comprising NFκB-BRD4(1)-ED. […] The samples were then exposed to several temperatures (25° C., 45° C., 50° C. and 55° C. respectively).
# BRD4(1) bromodomain = BRD4(1) bromodomain (Homo sapiens, UniProt O60885); conditions: HEK293 cells, n=2
# Description: 2. […] 3. […] 4. Count cells. 5. […] 6. […] 7. […] 8. […] 9.
# c-Myc expression = conditions: Ciceri et al., Nat Chem Biol. 2014; read-out: Published cell potency for reducing c-Myc expression: IC50; cited from earlier work
smiles,measurement,setting,value
"COc1cc2c(NC3CCN(C(C)C)CC3)nc(C3CCCCC3)nc2cc1OCCCN1CCCC1 [UNC0538, 2-Cyclohexyl-6-methoxy-N-[1-(1-methylethyl)-4-piperidinyl]-7-[3-(1-pyrrolidinyl)propoxy]-4-quinazolinamine]",IC50,H3K9me2,~81 nM
same,Assay Window,G9a catalytic domain,5.0
same,"Protection against denaturation of G9a, dose response",[1],increases in a dose-dependent manner
COc1ccc2nc3c(c(C)nn3C)c(NCCOCCO)c2c1 [SCH 51344],EC50,MTH1 [2],50 nM
same,Assay Window,[3]; denaturation 45° C./1.5 min.,1.9
same,EC50,[3]; denaturation 45° C./1.5 min.,370 nM
same,Assay Window,[3]; denaturation 48° C./3.0 min.,9.7
same,EC50,[3]; denaturation 48° C./3.0 min.,4600 nM
same,IC50,MTH1 [4],< 20000 nM
CC(C)[C@H](CO)Nc1nc(Nc2ccc(C(=O)O)c(Cl)c2)c2ncn(C(C)C)c2n1 [purvalanol B],Affinity rank order for ABL1 from dose response curves,ABL1 protein kinase,lowest affinity
"Cc1sc2c(c1C)C(c1ccc(Cl)cc1)=N[C@@H](CC(=O)OC(C)(C)C)c1nnc(C)n1-2 [JQ1, (6S)-4-(4-Chlorophenyl)-2,3,9-trimethyl-6H-thieno[3,2-f][1,2,4]triazolo[4,3-a][1,4]diazepine-6-acetic acid, 1,1-dimethylethyl ester]","Rescue of BRD4(1) fusion protein from heat denaturation, dose response",BRD4(1),rescue the fusion protein from denaturation in a dose-dependent manner
same,Assay Window,BRD4(1) bromodomain,3.5 +/− 0.14
same,IC50,c-Myc expression,~100 nM
